Experiment [1] relates to HCT116 human colon cancer cells. Nature of the experiment: MTT colorimetric proliferation / cell survival assay, HCT116. To be noted: for Cell survival rate (%): compound alone, others not given; for Cell survival rate (%) / Cell survival rate after addition of 10 μM auranofin (%): with 30% FBS, 50 μM for TGTA, β-mercaptoethanol, mercaptoethylamine, DEDT; for Cell survival rate after addition of 10 μM auranofin (%): compound plus 10 μM auranofin, listed as Auranofin = auranofin alone.

The test system of another experiment is TrxR. Nature of the experiment: Intracellular TrxR activity in HepG2 cells (DTNB reduction). The format is cell-based, human. To be noted: mercapto compound alone 200 μM, 30% FBS. As to the method: HepG2 cells were used as a test subject.
The cells were inoculated into a 6-well plate at 2×10^5 cell/well and incubated for 24 h.
After the incubation, the cell culture medium was replaced with 30% FBS to simulate the high concentration mercapto environment under the normal physiological condition, and used as a control (without adding any reagents). The experimental group was added with 0.5 μM of auranofin for incubation at 37° C. for 30 min, and then added with the mercapto compound (DEDT, β-mercaptoethanol or mercaptoethylamine) for incubation for 30 min (final concentration of DMSO in the system was ≤1%). The incubated cells were washed for 3 times with PBS, added with 100 μL of icy lysis buffer (containing 50 mM of phosphate buffer with pH 7.4, 1 mM EDTA, and 0.10% Triton-X 100), and then lysed on ice for 5 min to collect the cell lysate.
100 μL of buffer (containing 50 mM of potassium phosphate with pH 7.4, 1 mM EDTA, and 0.2 mM NADPH) was added to the collected cell lysate (10 μg protein), 5,5′-dithiobis (2-nitrobenzoic acid) (DTNB, with a final concentration of 3 mM) was added to initiate a reaction, and the activity of TrxR was obtained on the basis of the increased OD value in 10 minutes (OD detection wavelength was 410 nm). Auranofin alone was the positive control sample, and the blank group was the negative control.

In experiment [2] the test system is MGC803 human gastric cancer cells. The experiment is described as follows: MTT cell survival assay, MGC803. The format is cell-based. To be noted: TGTA 50 μM. As to the method: (§1) A flask with the cancer cells required for the experiment, with an original culture solution discarded, was washed for three times with 2 mL of PBS, 1 mL of pancreatin was added for digestion for 30 s, and 2 mL of a medium was added to terminate the digestion. The cells were transferred to a centrifuge tube and centrifuged at 1000 rpm for 3 min, the supernatant was discarded, and 2 mL of a medium was added and blew 10 times to be mixed uniformly. 10 μL of a cell suspension was taken for cell counting, and spread on a 96-well plate, with 5000 cells per well and 3 duplications for each compound, and then the number of cells and cell wells was calculated. The amount of required cell suspension and the number of cells for medium dilution were calculated by cell counting. 100 μL of medium was plated with 5000 cells per well, pipetted and mixed uniformly, and the cells were inoculated using a volley, placed in an incubator for culture, and marked. […]
(§2) According to the results of Table 1-2, the killing effect of auranofin in combination with various compounds (with 30% FBS) on HCT116 human colon cancer cells and the killing effect of the auranofin-TGTA (50 μM) in combination with other cancer cells (lung cancer, colon cancer, breast cancer, liver cancer, cervical cancer and gastric cancer cells) were further detected by using the same method as the above.
(Formazan colour is commonly taken as a measure of viable cells.)

For experiment [3], the system named is PC9 human lung cancer cells. The experiment is described as follows: MTT cell survival assay, PC9. To be noted: TGTA 50 μM. The format is cell-based. As to the method: as §1, §2
In experiment [4] the test system is A549 human lung cancer cells. The experiment is described as follows: MTT colorimetric proliferation / cell survival assay, A549. The format is cell-based. To be noted: Lung cancer; TGTA 50 μM. As to the method: (§3) A flask with the cancer cells required for the experiment, with an original culture solution discarded, was washed for three times with 2 mL of PBS, 1 mL of pancreatin was added for digestion for 30 s, and 2 mL of a medium was added to terminate the digestion. The cells were transferred to a centrifuge tube and centrifuged at 1000 rpm for 3 min, the supernatant was discarded, and 2 mL of a medium was added and blew 10 times to be mixed uniformly. 10 μL of a cell suspension was taken for cell counting, and spread on a 96-well plate, with 5000 cells per well and 3 duplications for each compound, and then the number of cells and cell wells was calculated. The amount of required cell suspension and the number of cells for medium dilution were calculated by cell counting. 100 μL of medium was plated with 5000 cells per well, pipetted and mixed uniformly, and the cells were inoculated using a volley, placed in an incubator for culture, and marked.
(§4) (2) The cells cultured in step (1) was taken, and discarded with the original medium. Auranofin mother liquor was diluted to a diluent with final concentrations of 0, 0.78125, 1.5625, 3.125, 6.25, 12.5, 25, 50 and 100 μM, and mixed uniformly. A volley (using 3 wells) was used to draw 100 μL of dilution per well, a 96-well plate was tilted, diluents with each concentration were added in sequence to the corresponding 3 marked wells carefully to prevent poking the cells, blown and sucked about 3 times to be mixed uniformly, marked, shaken for 3 times, and put into a CO2 incubator for culture. The above steps were repeated for each auranofin diluent.
(§5) After auranofin was added for culture for 1 hour, the mother liquor of the mercapto compound was diluted into […] and mixed uniformly. A volley (using 3 wells) was used to suck 20 μL of diluent per well, the 96-well plate was tilted, the diluents of different mercapto compounds were added in sequence to the corresponding 3 marked wells carefully to prevent poking the cells, blown and sucked about 3 times to be mixed uniformly, and put back to the incubator to continue culture.
(§6) After different mercapto compounds were added to cells for 24 h, 20 μL of MTT (with a concentration of 5 mg/mL in PBS) per well was added to the 96-well plate by a volley; and incubation was carried out at 37° C. for 4 h. At the end of incubation, the MTT mixture was sucked out, and DMSO was added at 130 μL/well using a volley.
as §2

A further experiment has as its system PCGR lung cancer cells. The experiment is described as follows: MTT cell survival assay, PCGR. The format is cell-based. To be noted: TGTA 50 μM. The method, then:
as §1, §2

The test system of experiment [5] is HepG-2 human liver cancer cells. The experiment is described as follows: MTT colorimetric proliferation / cell survival assay, HepG-2. The format is cell-based. To be noted: Liver cancer; TGTA 50 μM. The method, then: as §3, §4, §5, §6, §2
The test system of experiment [6] is Hela human cervical cancer cells. Nature of the experiment: MTT cell survival assay, Hela. The format is cell-based. To be noted: TGTA 50 μM. The method, then: as §1, §2
In experiment [7] the test system is MCF-7 human breast cell cancer cells. Nature of the experiment: MTT colorimetric proliferation / cell survival assay, MCF-7. To be noted: breast cancer; TGTA 50 μM. The format is cell-based. The method, then:
as §3, §4, §5, §6, §2

Take `O[C@H](CS)[C@H](O)CS` (racemic) [Dithiothreitol (DTT), Dithiothreitol]: in experiment [1], the “Cell survival rate (%)” value was found to be 102 ± 4% and the “Cell survival rate after addition of 10 μM auranofin (%)” value (from here on “Cell survival rate after addition … (%)”) was found to be 88 ± 6%.
For `CCN(CC)C(=S)[S-].[Na+]` [DEDT, Sodium diethyldithiocarbamate], the “Activity of TrxR” value in the experiment on TrxR is reported as 88.6%. In experiment [1], the “Cell survival rate (%)” value is 78 ± 10% and the “Cell survival rate after addition … (%)” value came to 0.9 ± 1.6%.
With `N[C@@H](CCC(=O)N[C@@H](CS)C(=O)NCC(=O)O)C(=O)O` [Glutathione (GSH), Glutathione], in experiment [1], the “Cell survival rate (%)” value worked out at 116 ± 6% and the “Cell survival rate after addition … (%)” value amounted to 81 ± 7%.
As to `Cn1cc[nH]c1=S` [Methimazole], in experiment [1], the “Cell survival rate (%)” value is given as 98 ± 9% and the “Cell survival rate after addition … (%)” value is given as 87 ± 5%.
Taken in the same sequence, the figures for `CC(=O)N[C@@H](CS)C(=O)O` [N-acetylcysteine (NAC), N-acetylcysteine] were 100 ± 6% and 77 ± 17%.
Taken in the same sequence, the figures for `CCCc1cc(=O)[nH]c(=S)[nH]1` [Propylthiouracil] were 101 ± 6% and 76 ± 9%.
With `[Na+].[Na+].[Na+].[O-]P([O-])([O-])=S` [Sodium thiophosphate hydrate], in [1], the “Cell survival rate (%)” value came out at 99 ± 8% and the “Cell survival rate after addition … (%)” value was determined as 79 ± 4%.
On to `CC(=O)OC[C@H]1O[C@@H](S)[C@H](OC(C)=O)[C@@H](OC(C)=O)[C@@H]1OC(C)=O` [TGTA, 1-thio-β-D-glucose tetraacetate], for which the “Cell survival rate (%) MGC803” value in experiment [2] amounted to 104 ± 9%. In addition, in experiment [3], the “Cell survival rate (%) PC9” value was found to be 104 ± 2%. For the same compound, the “Cell survival rate (%) A549” value in [4] was 104 ± 6%. In addition, in the experiment with PCGR lung cancer cells, the “Cell survival rate (%) PCGR” value is listed as 101 ± 3%. Also, the “Cell survival rate (%) HepG2” value in experiment [5] came to 104 ± 4%. In experiment [6], the “Cell survival rate (%) Hela” value was found to be 87 ± 6%. Besides, in experiment [1] (colon cancer, TGTA 50 μM), the “Cell survival rate (%) HCT116” value worked out at 97 ± 5%. In experiment [1], the “Cell survival rate (%)” value amounted to 97 ± 5% and the “Cell survival rate after addition … (%)” value was 18 ± 2%. Also, the “Cell survival rate (%) MCF-7” value in experiment [7] was found to be 99 ± 3%.
Regarding `NCCS` [mercaptoethylamine, mercaptoethanamine], the “Activity of TrxR” value in the experiment on TrxR amounted to 118.2%. Also, in [1], the “Cell survival rate (%)” value amounted to 105 ± 7% and the “Cell survival rate after addition … (%)” value is recorded as 85 ± 3%.
Consider `O=S([O-])([O-])=S.[Na+].[Na+]` [sodium thiosulfate], for which, in experiment [1], the “Cell survival rate (%)” value came out at 105 ± 5% and the “Cell survival rate after addition … (%)” value amounted to 84 ± 8%.
On to `OCCS` [β-mercaptoethanol], for which the “Activity of TrxR” value in the experiment on TrxR came to 127.3%. In [1], the “Cell survival rate (%)” value was 96 ± 15% and the “Cell survival rate after addition … (%)” value came to 55 ± 4%.

For the origin of these results see patent US20240024350A1, “ANTI-CANCER COMPOSITION CONTAINING AURANOFIN AND MERCAPTO COMPOUND AND USE THEREOF” (SUN YAT-SEN UNIVERSITY, priority 2020, published 2024).
